Source: article PMC8041276 (ACS Chemical Neuroscience, 2021)
Where two headings read alike, the source gives them in different places.

Experiments:
D2R = target: T1, D2R (Homo sapiens, UniProt P14416); assay: [3H]-raclopride radioligand binding assay, HEK293 cells; conditions: mean of three experiments
T1 construct: expressed in transfected cells
Procedure: (§1) All experiments were carried out according to the previously published procedures.[41]−[43] HEK293 cells stably expressing human 5-HT1A, 5-HT6, 5-HT7b, and D2L receptors (prepared with the use of Lipofectamine 2000) or CHO-K1 cells with plasmid containing the sequence coding for the human serotonin 5-HT2A receptor (PerkinElmer) were maintained at 37 °C in a humidified atmosphere containing 5% CO2 and grown in Dulbecco’s modified Eagle’s medium containing 10% dialyzed fetal bovine serum and 500 μg/mL G418 sulfate. For membrane preparation, cells were cultured in 150 cm^2 flasks, grown to 90% confluence, washed twice with prewarmed to 37 °C phosphate buffered saline (PBS), and centrifuged (200g) in PBS containing 0.1 mM EDTA and 1 mM dithiothreitol. Prior to membrane preparation, pellets were stored at −80 °C. Cell pellets were thawed and homogenized in 10 volumes of assay buffer using an Ultra Turrax tissue homogenizer and centrifuged twice at 35 000g for 15 min at 4 °C, with incubation for 15 min at 37 °C between the centrifugations. The composition of the assay buffers was experimentally selected to achieve the maximum signal window (more details in Supporting Information). All assays were carried out in a total volume of 200 μL in 96-well plates for 1 h at 37 °C except 5-HT1AR and 5-HT2AR which were incubated at room temperature and 27 °C, respectively. The process of equilibration was terminated by rapid filtration through Unifilter plates with a 96-well cell harvester, and radioactivity retained on the filters was quantified on a Microbeta plate reader (PerkinElmer, USA). For displacement studies the assay samples contained the following as radioligands (PerkinElmer, USA): 2.5 nM [^3H]-8-OH-DPAT (135.2 Ci/mmol) for 5-HT1AR; 1 nM [^3H]-ketanserin (53.4 Ci/mmol) for 5-HT2AR; 2 nM [^3H]-LSD (83.6 Ci/mmol) for 5-HT6R; 0.8 nM [^3H]-5-CT (39.2 Ci/mmol) for 5-HT7R or 2.5 nM [^3H]-raclopride (76.0 Ci/mmol) for D2LR. Nonspecific binding was defined in the presence of 10 μM 5-HT in 5-HT1AR and 5-HT7R binding experiments, whereas 20 μM mianserin, 10 μM methiothepine, and 10 μM haloperidol were used in 5-HT2AR, 5-HT6R, and D2LR assays, respectively. Each compound was tested in triplicate at seven concentrations (10^–10–10^–4 M). The inhibition constants (Ki) were calculated from the Cheng–Prusoff equation.[44]

5-HT7R = target: T2, 5-HT7R (Homo sapiens, UniProt P34969); assay: [3H]-5-CT radioligand binding assay, HEK293 cells; conditions: mean of three experiments
T2 construct: expressed in transfected cells
Procedure: as §1

[1] = In vivo pharmacokinetic study, plasma and brain; design: species or system male Wistar rats; conditions: male, Wistar, po, rat; for AUC(0-t) / Cmax / MRT / Tmax / half-life: 10 mg/kg p.o.; for half-life: read-out: t0.5 (terminal half-life)
Procedure: Subsequently, the pharmacokinetic profile of 27 and 28 was assessed in male Wistar rats after single intragastric administration at the dose of 10 mg/kg. The studied compounds were rapidly absorbed and crossed the blood–brain barrier, reaching the Cmax in 5 min in both plasma and brain.
For LC–MS/MS analyses, an HPLC Nexera system (Shimadzu, Kyoto, Japan) combined with the triple quadrupole API 3200 mass spectrometer (SCIEX, Framingham, MA, USA) interfaced via an electrospray source and controlled by Analyst software version 1.5.2 (SCIEX, Framingham, MA, USA) was applied.
The chromatographic separation was performed on Acclaim Polar Advantage II (3.0 mm × 74 mm, 3 μm, 120A, Dionex, USA) analytical column using the mobile phase composed of eluent A, HPLC grade acetonitrile acidified with 0.1% (v/v) formic acid, and eluent B, HPLC grade water with 0.1% (v/v) formic acid. The elution gradient started with 90% of eluent B, increasing to 90% of eluent A over 5 min, returned to 90% of eluent B over 5 min, and maintained at 90% of eluent B for 5 min. The mobile phase flow rate was set at 400 μL/min. The injection volume was 20 μL, and the total time of analysis was 15 min. The temperatures of the column thermostat and the autosampler were set at 40 and 10 °C, respectively.
For increased sensitivity and selectivity, the MS/MS data acquisition was performed in the selected reaction monitoring (SRM) mode. The ions measured were m/z 585.1 (Q1) and m/z 516.2 (Q3) for compounds 27 and 28 and m/z 305 (Q1) and m/z 248 (Q3) for IS. The quantification was done via peak area ratio.
Protein precipitation with acetonitrile was used for purification of plasma and brain homogenates. The whole brain was homogenized using an electric tissue homogenizer in an appropriate amount of phosphate buffer (pH 7.4) in 1:2.5 ratio. Thereafter, a volume of 100 μL of plasma or brain homogenate was transferred to 2 mL Eppendorf tubes, and a 5 μL aliquot of the internal standard (IS, PH002437, Merck, Darmstadt, Germany) in working solution (5 μg/mL) was added and vortex-mixed for 10 s. Thereafter, 200 μL of acetonitrile was added and mixed for 20 min, followed by centrifugation (28 672g) for 10 min at 4 °C. The supernatant was transferred to chromatographic vials, and 20 μL was injected into the analytical column.
A group of 64 male, 8-week-old, Wistar strain outbred rats weighing between 200 and 220 g each were purchased from the Animal House at the Faculty of Pharmacy, Jagiellonian University Medical College, Krakow (Poland) and housed in standard polycarbonate cages, in groups of four animals per cage. Environmental conditions during the study were constant: relative humidity 50–60%, temperature 22 ± 2 °C, normal 12 h light–dark cycle (7 a.m. to 7 p.m. light). Standard rodent chow and water were available ad libitum. Compounds 27 and 28 were dissolved in saline and administered by intragastric gavage at a dose of 10 mg/kg, and the animals were sacrificed at specific time-points: 0 min, predose (n = 4), 5 min (n = 4), 15 min (n = 4), 30 min (n = 4), 60 min (n = 4), 120 min (n = 4), 240 min (n = 4), and 480 min (n = 4) after administration. Animals were deeply anaesthetized by ip injections of 50 mg/kg ketamine plus 8 mg/kg xylazine before sacrifice. First, the blood was collected into heparinized tubes, and the blood samples were centrifuged at 1000g for 10 min to obtain plasma. Following the animals’ euthanasia, the whole brain was collected. The plasma and brain samples were immediately frozen at −80 °C for future analysis. All experimental procedures were carried out in accordance with EU Directive 2010/63/EU and approved by the I Local Ethics Committee for Experiments on Animals of the Jagiellonian University in Krakow, Poland (No. 83/2018).

T2 sequence (P34969 1-432): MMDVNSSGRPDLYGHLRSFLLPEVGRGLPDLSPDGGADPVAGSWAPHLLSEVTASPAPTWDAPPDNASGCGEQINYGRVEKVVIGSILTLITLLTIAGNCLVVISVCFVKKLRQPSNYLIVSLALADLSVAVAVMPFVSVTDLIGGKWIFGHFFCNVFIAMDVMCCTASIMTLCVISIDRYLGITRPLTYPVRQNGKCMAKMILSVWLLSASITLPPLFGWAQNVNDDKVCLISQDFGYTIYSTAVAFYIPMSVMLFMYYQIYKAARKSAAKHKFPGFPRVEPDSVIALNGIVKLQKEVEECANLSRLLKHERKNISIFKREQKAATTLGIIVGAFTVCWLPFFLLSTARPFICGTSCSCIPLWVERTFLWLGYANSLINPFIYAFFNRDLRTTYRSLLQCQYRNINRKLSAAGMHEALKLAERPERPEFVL
T1 sequence (P14416 whole entry): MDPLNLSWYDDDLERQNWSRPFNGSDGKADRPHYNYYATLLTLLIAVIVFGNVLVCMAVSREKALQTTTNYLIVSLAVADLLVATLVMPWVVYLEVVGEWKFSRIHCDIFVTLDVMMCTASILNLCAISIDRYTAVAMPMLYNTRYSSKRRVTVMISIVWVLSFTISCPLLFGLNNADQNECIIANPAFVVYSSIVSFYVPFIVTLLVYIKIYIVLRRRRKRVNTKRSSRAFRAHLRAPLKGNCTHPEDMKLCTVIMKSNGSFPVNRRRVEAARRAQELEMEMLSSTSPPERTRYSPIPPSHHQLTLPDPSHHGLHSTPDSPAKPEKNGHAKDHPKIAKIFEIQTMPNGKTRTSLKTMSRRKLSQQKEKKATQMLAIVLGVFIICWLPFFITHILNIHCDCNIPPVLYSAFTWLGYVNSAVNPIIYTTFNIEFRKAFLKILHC

SMILES: O=C(N[C@H]1CCNC1)c1ccn(S(=O)(=O)c2cccc(Cl)c2)c1-c1ccc(F)cc1 [Compound 28, (S)-2-(4-Fluorophenyl)-1-[(3-chlorophenyl)sulfonyl]-N-(pyrrolidin-3-yl)-1H-pyrrole-3-carboxamide]
- Ki (D2R): 7.34 µM
- Ki (5-HT7R): 3.53 µM
- AUC(0-t) ([1]; brain): 289 ng·h/mL
- Cmax ([1]; brain): 51.7 ng/g
- MRT ([1]; brain): 4.43 h
- Tmax ([1]; brain): 5 min
- AUC(0-t) ([1]; plasma): 3390 ng·h/mL
- Cmax ([1]; plasma): 3500 ng/mL
- MRT ([1]; plasma): 3.35 h
- Tmax ([1]; plasma): 5 min
- half-life ([1]; plasma): 4.95 h

SMILES: O=C(N[C@@H]1CCNC1)c1ccn(S(=O)(=O)c2cccc(Cl)c2)c1-c1ccc(F)cc1 [Compound 27, (R)-2-(4-Fluorophenyl)-1-[(3-chlorophenyl)sulfonyl]-N-(pyrrolidin-3-yl)-1H-pyrrole-3-carboxamide]
- Ki (D2R): 7.08 µM
- Ki (5-HT7R): 42 µM
- Kp ([1]; brain/plasma, 10 mg/kg intragastric, read-out: brain/plasma ratio): 0.63
- AUC(0-t) ([1]; brain): 812 ng·h/mL
- Cmax ([1]; brain): 427 ng/g
- MRT ([1]; brain): 3.02 h
- Tmax ([1]; brain): 5 min
- half-life ([1]; brain): 4.18 h
- AUC(0-t) ([1]; plasma): 1290 ng·h/mL
- Cmax ([1]; plasma): 1040 ng/mL
- MRT ([1]; plasma): 2.72 h
- Tmax ([1]; plasma): 5 min
- half-life ([1]; plasma): 1.96 h
